Assays:
Type in all cases: cell-based
[1] = Inhibition of human cloned sPLA2-5 expressed in HEK293 cells
[2] = target: T1, Group 10 secretory phospholipase A2 (Homo sapiens, UniProt O15496); test: Inhibition of human cloned sPLA2-10 expressed in HEK293 cells
T1 sequence (O15496 whole entry): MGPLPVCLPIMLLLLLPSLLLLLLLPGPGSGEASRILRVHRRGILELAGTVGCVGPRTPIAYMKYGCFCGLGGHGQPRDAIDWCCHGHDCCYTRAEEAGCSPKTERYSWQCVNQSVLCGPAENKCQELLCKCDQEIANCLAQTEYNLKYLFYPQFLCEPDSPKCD

[3] = target: Phospholipase A2 (Rattus norvegicus, UniProt P04055); test: Inhibition of rat cloned sPLA2-1B expressed in HEK293 cells
[4] = target: T2, Cytosolic phospholipase A2 (Homo sapiens, UniProt P47712); test: Inhibition of human cloned cPLA2 expressed in HEK293 cells
T2 sequence (P47712 whole entry): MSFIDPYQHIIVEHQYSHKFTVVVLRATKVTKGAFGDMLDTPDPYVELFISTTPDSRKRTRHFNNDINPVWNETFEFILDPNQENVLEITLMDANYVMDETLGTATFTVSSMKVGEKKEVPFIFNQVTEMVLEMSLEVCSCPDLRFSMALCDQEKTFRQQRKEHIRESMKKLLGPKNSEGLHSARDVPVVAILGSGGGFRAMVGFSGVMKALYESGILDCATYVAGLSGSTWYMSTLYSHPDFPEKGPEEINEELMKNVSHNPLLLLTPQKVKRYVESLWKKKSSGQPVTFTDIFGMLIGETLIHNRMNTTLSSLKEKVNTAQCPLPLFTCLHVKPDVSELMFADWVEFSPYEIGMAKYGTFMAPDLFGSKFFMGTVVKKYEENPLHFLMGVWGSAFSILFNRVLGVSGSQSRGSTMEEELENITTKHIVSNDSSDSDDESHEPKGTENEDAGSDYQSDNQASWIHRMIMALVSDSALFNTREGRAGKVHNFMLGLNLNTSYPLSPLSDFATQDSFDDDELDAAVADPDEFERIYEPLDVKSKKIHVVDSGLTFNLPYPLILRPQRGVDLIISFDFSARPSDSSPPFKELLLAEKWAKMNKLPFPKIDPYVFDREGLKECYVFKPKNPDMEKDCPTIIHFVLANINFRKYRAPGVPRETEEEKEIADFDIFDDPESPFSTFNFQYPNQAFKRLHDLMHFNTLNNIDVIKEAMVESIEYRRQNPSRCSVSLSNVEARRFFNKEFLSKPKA

Sequence of Phospholipase A2 (P04055 whole entry): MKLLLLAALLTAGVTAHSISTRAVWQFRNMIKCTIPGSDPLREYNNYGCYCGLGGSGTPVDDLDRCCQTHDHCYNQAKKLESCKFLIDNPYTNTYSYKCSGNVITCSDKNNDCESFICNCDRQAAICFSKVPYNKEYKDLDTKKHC

Structure (SMILES)	IC50 [1] [µM]	IC50 [2] [µM]	IC50 [3] [µM]	IC50 [4] [µM]
O=c1cc(-c2ccc(-c3cccc(-c4cc(=O)c5ccccc5o4)c3)cc2)oc2ccccc12	23.9	> 100	> 100	38.7
O=c1cc(-c2cccc(-c3ccc4oc(-c5ccccc5)cc(=O)c4c3)c2)oc2ccccc12	12.8	27.6	> 100	16.8
O=c1cc(-c2ccccc2)oc2ccc(-c3ccc4oc(-c5ccccc5)cc(=O)c4c3)cc12	50	> 100	> 100	48.1
O=c1cc(-c2ccc(O)c(-c3c(O)cc(O)c4c(=O)cc(-c5ccc(O)cc5)oc34)c2)oc2cc(O)cc(O)c12 [AMENTOFLAVONE]	41.8	> 100	> 100	> 100
O=c1cc(-c2ccc(Oc3cc(-c4cc(=O)c5c(O)cc(O)cc5o4)ccc3O)cc2)oc2cc(O)cc(O)c12 [OCHNAFLAVONE]	17.6	> 100	> 100	> 100

These reach a lower IC50 [1]. Values come first.

IC50 [1] [µM]	IC50 [2] [µM]	IC50 [3] [µM]	IC50 [4] [µM]	Structure (SMILES)
6.5	> 100	> 100	8.42	O=c1cc(-c2ccc(-c3c(-c4ccccc4)oc4ccccc4c3=O)cc2)oc2ccccc12
8.7	> 100	> 100	6	O=c1cc(-c2ccc(-c3ccc(-c4cc(=O)c5ccccc5o4)cc3)cc2)oc2ccccc12
10.8	> 100	> 100	11.9	O=c1cc(-c2ccc(-c3ccc4oc(-c5ccccc5)cc(=O)c4c3)cc2)oc2ccccc12

Reference: ChEMBL document CHEMBL1140451, “Inhibitory effect of synthetic C-C biflavones on various phospholipase A(2)s activity” (Bioorg Med Chem, 2007)
